Test system: Corynespora cassiicola
Experiment: Liquid culture growth inhibition of Corynespora cassiicola (PDB, 96-well microtiter plate, photometric)
Assay type: cell-based
Conditions: 24 C, 3-4 days, photometric at 620 nm, compared to untreated control
Protocol: Conidia of the fungus from cryogenic storage were directly mixed into nutrient broth (PDB potato dextrose broth). A DMSO solution of the test compounds was placed into a microtiter plate (96-well format) and the nutrient broth containing the fungal spores was added to it. The test plates were incubated at 24 C and the inhibition of growth (% control of Corynespora cassiicola) was determined photometrically after 3-4 days at 620 nm. The activity of a compound is derived by comparing the inhibition of growth in the treated test solution to the growth in the untreated check. The concentration of the compounds was 0.74, 0.25, and 0.082 ppm.

Compound: CC1(C)N=C(c2cnc3ccccc3c2)c2ccccc2C1(F)F
- control of Corynespora cassiicola (inhibition of growth) (0.082 ppm): at least 20%
- control of Corynespora cassiicola (inhibition of growth) (0.25 ppm): at least 50%
- control of Corynespora cassiicola (inhibition of growth) (0.74 ppm): at least 70%
